Source: PubChem BioAssay (NCI)
Values joined by “and” are separate entries in the source; they are usually repeats but may differ in a detail not shown here. Equal values may be shown once.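 Five compound concentrations were applied to cells in 96-well plates for 48 hours; endpoints were derived by simple linear interpolation of the resulting dose-response curve. Abbreviation: GI50, concentration required for 50% inhibition of growth. TGI: concentration producing complete growth inhibition.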

Key:
Experiment in all cases: inhibition of tumour cell growth, NCI panel, 48 h
UACC-257 melanoma = system: UACC-257 melanoma
NCI-H460 lung = system: NCI-H460 lung
MALME-3M melanoma = system: MALME-3M melanoma
T-47D breast = system: T-47D breast
NCI-H226 lung = system: NCI-H226 lung
BT-549 breast = system: BT-549 breast
ACHN renal = system: ACHN renal
MOLT-4 leukemia = system: MOLT-4 leukemia
K-562 leukemia = system: K-562 leukemia
UO-31 renal = system: UO-31 renal

SMILES	GI50 (UACC-257 melanoma)	TGI (UACC-257 melanoma)	GI50 (NCI-H460 lung)	TGI (NCI-H460 lung)	GI50 (MALME-3M melanoma)	TGI (MALME-3M melanoma)	GI50 (T-47D breast)	TGI (T-47D breast)	GI50 (NCI-H226 lung)	TGI (NCI-H226 lung)	GI50 (BT-549 breast)	TGI (BT-549 breast)	GI50 (ACHN renal)	TGI (ACHN renal)	GI50 (MOLT-4 leukemia)	TGI (MOLT-4 leukemia)	GI50 (K-562 leukemia)	TGI (K-562 leukemia)	GI50 (UO-31 renal)	TGI (UO-31 renal)
COc1ccc(C(CC(=O)c2ccccc2)C(C(=O)c2ccccc2)C(c2ccc(OC)cc2)C2C(=O)NC(=O)NC2=O)cc1 (stereo not given)	14.1 µM	69.3 µM	7.14 µM	> 100 µM	33.1 µM	> 100 µM	21.6 µM	> 100 µM	20 µM	62 µM	21.9 µM	92.8 µM	17.9 µM	> 100 µM	60.7 µM	> 100 µM	39.1 µM	> 100 µM	13.5 µM	47.7 µM
CCCOC(=O)N[C@H]1CCc2c(Br)c(OC)c(OC)c(OC)c2-c2ccc(SC)c(=O)cc21	5.02 µM	32.6 µM	0.0306 µM	2.02 µM	0.0348 µM	27.2 µM	14.1 µM	> 100 µM	0.0341 µM	6.71 µM	0.0223 µM	6.39 µM	0.0431 µM	30.4 µM	0.0382 µM	> 100 µM	< 0.01 µM	> 100 µM	0.103 µM	21.9 µM
Cc1c(Cl)cccc1NC(=O)CC1Sc2ccccc2NC1=O (stereo not given)	38.7 µM and 5.35 µM	> 94.7 µM and 37.8 µM		61.5 µM and 62.5 µM		50.7 µM and 47.2 µM		86.5 µM		41.7 µM and 54.8 µM		> 100 µM		63.6 µM and 69.8 µM		> 100 µM		99.7 µM and > 100 µM		49.2 µM and 54.8 µM
COc1ccc2c(c1)O/C(=C\c1cccc(OCC(=O)Nc3nc4ccccc4s3)c1)C2=O	> 100 µM	> 100 µM	> 64.4 µM	> 100 µM	2 µM	4.37 µM	9.66 µM	> 100 µM	42 µM	> 100 µM	26 µM	97.6 µM	12.7 µM	> 100 µM	3.33 µM	20.2 µM	6.07 µM	> 100 µM	1.53 µM	3 µM
O=C(c1ccccc1)c1ccc(-c2ccc(O)cc2)cc1	16 µM	66.5 µM	4.2 µM	39.3 µM	0.803 µM	34.9 µM	3.75 µM	35.6 µM	16.8 µM	> 73.7 µM	4.04 µM	31.3 µM	6.88 µM	36.3 µM	4.28 µM	33.4 µM	2.92 µM	> 60.7 µM	4.04 µM	50.3 µM
COC1/C=C/O[C@@]2(C)Oc3c(C)c(O)c4c(O)c(cc(O)c4c3C2=O)NC(=O)/C(C)=C\C=C\[C@H](C)C(O)[C@@H](C)[C@@H](O)[C@@H](C)[C@H](OC(C)=O)[C@@H]1C (stereo not given in full)	17.5 µM	32.7 µM and 32.9 µM	18.8 µM and 32.7 µM	37 µM and 79.8 µM	12.8 µM	25.9 µM and 77.9 µM	8.63 µM	23.2 µM and 48.5 µM	39.6 µM and 59.3 µM	179 µM	29 µM	37.7 µM and 84.4 µM	16.9 µM	30.5 µM and 41.9 µM	7.42 µM	36.3 µM and 62.5 µM	4.47 µM	21.8 µM and 82.6 µM	12 µM	24.4 µM and 96.9 µM
CCC(=O)Sc1ccccc1C(=O)Nc1ccc(Cl)cc1	31.7 µM	> 100 µM	4.84 µM	36 µM	8.76 µM	51.2 µM	8.96 µM	38.6 µM	10.4 µM	54.8 µM	3.21 µM	9.89 µM	16.5 µM	71.6 µM	4.67 µM	92.6 µM	3.83 µM	> 100 µM	6.53 µM	> 100 µM
C=CC1CC12C(=O)C1OC2(C)C2C(=O)c3ccccc3C(=O)C12 (stereo not given)	> 45.9 µM	> 81.7 µM	> 58.3 µM	> 100 µM	21.3 µM	59.1 µM	51.4 µM	> 100 µM	> 76.2 µM	> 100 µM	> 72.9 µM	> 100 µM	57.3 µM	> 100 µM	1.54 µM	11.1 µM	2.3 µM	6.94 µM	> 87.3 µM	> 100 µM
Cc1ccc(NS(=O)(=O)c2ccc(-c3cnc(C4CC4)o3)cc2)cc1	10.8 µM	27.8 µM	3.91 µM	14.9 µM	2.48 µM	17.6 µM	2.68 µM	11 µM	7.37 µM	24.5 µM	5.14 µM	19.7 µM	4.43 µM	18.4 µM	3.22 µM	20.9 µM	0.519 µM	16.3 µM	3.49 µM	16.1 µM
COC1=CC(c2ccc[nH]2)=N/C1=C\c1[nH]c(C)c(C(=O)CCC(=O)Oc2ccc3c(c2)CCC2C3CC[C@]3(C)C(=O)CC[C@@H]23)c1C (stereo not given in full)	97.6 µM	> 100 µM	3.07 µM	> 100 µM	29.2 µM	> 100 µM	13.9 µM	> 100 µM	10.9 µM	> 58.6 µM	15.5 µM	> 100 µM	5.82 µM	> 100 µM	2.71 µM	> 100 µM	4.22 µM	> 100 µM	3.95 µM	30 µM
CO/N=C(\c1ccccc1)c1cnn(-c2ccccc2)c1N	> 25 µM	> 25 µM	> 25 µM	> 25 µM	> 25 µM	> 25 µM	> 25 µM	> 25 µM	> 25 µM	> 25 µM	> 25 µM	> 25 µM	> 25 µM	> 25 µM	> 25 µM	> 25 µM	> 25 µM	> 25 µM	> 25 µM	> 25 µM
O=C1C(=O)c2ccc(Br)cc2-c2cc(Br)ccc21	1.62 µM	4.19 µM	4.5 µM	> 89.2 µM	7.74 µM	> 52.3 µM	1.41 µM	3.92 µM	> 60.1 µM	> 100 µM	7.69 µM	> 95.3 µM	1.52 µM		0.522 µM	1.66 µM	0.799 µM	> 29.8 µM	5.61 µM	> 100 µM
